Reference: patent publication US4442093A, “Method for administering 24,25-dihydroxycholecalciferol to persons suffering from hypercalcemia” (Kureha Kagaku Kogyo Kabushiki Kaisha, priority 1981, dated 1984)

Assays:
calcium level in serum = test: Serum calcium in patient with hyperparathyroidism accompanied by hypercalcemia (Example 6); assay type: in vivo, human; settings: person seventeen, 10 µg/day oral
From the text: The thus prepared capsule composition was tentatively applied to the following two cases of human hyperparathyroidism accompanied by hypercalcemia:
To patient seventeen suffering from hyperparathyroidism accompanied by hypercalcemia, one of the capsule composition prepared as above containing 1 microgram of the active ingredient in one capsule was orally administered at a daily dose of 10 micrograms of 24R,25-(OH)2 -D3 for continuous 4 days.

thymic cells = test: Pattern of the size of thymic cells by FACS (Example 12); assay type: in vivo, rats; settings: 100 µg/kg/day oral 12 days with puromycin aminonucleoside
Protocol: After feeding the rats (the same number and the same grouping) of the same strain and treating them in the same manner as in Example 11, their thymus was resected, and an analysis of the pattern of the size of the thymic cells was carried out while using Fluorescence Activated Cell Sorter (FACS II, made by Becton-Dickinson Co.) as follows:
After loosing the resected thymus in phosphate buffer solution sufficiently with a pincette, pipetting well and passing the mixture through a standard #200 Tyler stainless steel mesh, the filtrate was treated with an aqueous 0.83% by weight ammonium chloride buffer solution containing tris-hydroxyaminomethane to carry out hemolysis of the erythrocytes intermingled therein followed by three times of washing with the phosphate buffer solution. After adjusting the concentration of the thus obtained thymic cell to 5×10^6 cells/ml with the addition of the phosphate buffer solution, the abovementioned analysis was carried out. The ratio of the number of living thymic cells to the total number of the thus obtained thymic cells was confirmed to be higher than 95% after staining with trypan blue and counting under microscope.

[1] = system: content of magnesium in serum; test: Serum magnesium in rats given puromycin aminonucleoside (Example 15); assay type: in vivo, male Wistar rats; settings: AN 1.5 mg/100 g
Protocol: Forty male Wistar rats in 9th week after birth were divided into four groups, and the rats of each group were treated as follows.
To the rats of the first group were administered subcutaneously physiological saline solution once a day for continuous 12 days at a daily dose of 0.1 ml/100 g body weight with the simultaneous oral administration of triglyceride ester of fatty acid used in Example 1 (abbreviated as MCT) containing 0.1% by weight of ethanol once a day for continuous 12 days at a daily dose of 0.2 ml/100 g body weight followed by oral administration of only MCT once a day for another 3 continuous days at the same daily dose rate.
To the rats of the second group were subcutaneously administered a solution of 1.5 mg of puromycin aminonucleoside (abbreviated hereinafter as AN) in 0.1 ml of physiological saline solution once a day for continuous 12 days at a daily dose rate of 1.5 mg of AN/100 g body weight. The saline solution had been sterilized with a Milipore filter before administration. To the rats were further administered orally MCT in the same manner as in those of the first group. […]
On 15th day after the commencement of the above-mentioned administration, blood specimen was collected from all the rats, and after preparing each specimen of serum from each blood specimen, the content of magnesium in each serum specimen was determined by atomic absorption method. […]

[2] = system: inorganic phosphate in serum; test: Serum inorganic phosphate in chronic renal failure patients without hemodialysis (Example 20); assay type: in vivo, human
Protocol: Eight patients suffering from chronic renal failure and not being subjected to hemodialysis shown in Table 14 were treated by oral daily administration of 24R,25-(OH)2 -D3 in a form of the soft capsule composition obtained in Example 6 at a daily dose of 2 to 10 micrograms for 8 weeks. The concentration of inorganic phosphate in the serum of each patient before the above-mentioned administration and that after completion of the above-mentioned administration for 8 weeks were determined by the Molybdenum Blue method, the results being shown in Table 14.

[3] = system: inorganic phosphate in serum; test: Serum inorganic phosphate in chronic renal failure patients under hemodialysis (Example 21); assay type: in vivo, human
Protocol: Eight patients suffering from chronic renal failure under the treatment of hemodialysis two times a week while using a dialysate containing 9 to 10 mg/dl of calcium component were further treated by oral administration of 24R,25-(OH)2 -D3 in a form of the soft capsule composition obtained in Example 6 at a daily dose of 2 to 10 micrograms for 6 weeks, and the concentration of inorganic phosphate in the serum of each patient before the commencement of the administration and that after completion of the administration were determined by Molybdenum Blue method.

[4] = Acute oral mammalian toxicity; design: species or system male mouse of ICR-strain; settings: mouse, in vivo, read-out: LD50 (per os)
Protocol: 0.3 ml of ethanolic solution containing 150 mg of 24R,25-(OH)2 -D3 was suspended in 15 ml of Panacete® 810 (triglyceride ester of C8 and C10 -fatty acid, made by Nippon Oil & Fats Co., Ltd.) to obtain a suspension containing 2% by weight of ethanol. The thus prepared composition was orally administered to a group of male mouse of ICR-strain consisting of 10 animals at a dose rate of 150 mg of 24R,25-(OH)2 -D3 per kg.

[5] = average of 8 patients, baseline

Compound: C=C1CC[C@H](O)C/C1=C/C=C1\CCC[C@]2(C)[C@@H]([C@H](C)CC[C@@H](O)C(C)(C)O)CC[C@@H]12 [24R,25-(OH)2 -D3]
- calcium level in serum after administration for 4 days (calcium level in serum): 10.8 mg/dL
- number ratio of cells a little larger than normal cell to total thymic cells (thymic cells): the same as that of the control group
- Mg in serum ([1]; 3rd group, dose 1 per 100 g b.w. oral 12 days): 4.5 ± 0.32 mg/dL
- Mg in serum ([1]; 4th group, dose 10 per 100 g b.w. oral 12 days): 4.3 ± 0.30 mg/dL
- Concentration of inorganic phosphate after administration, average ([2]; average of 8 patients, 2 to 10 µg/day, 8 weeks): 4.60 ± 0.66 mg/dL
- Concentration of inorganic phosphate before administration, average [2, 5]: 6.24 ± 0.53 mg/dL
- Concentration of inorganic phosphate after administration ([2]; patient 1 (person six), 10 µg/day, 8 weeks): 5.5 mg/dL
- Concentration of inorganic phosphate before administration ([2]; patient 1 (person six), baseline): 7.2 mg/dL
- Concentration of inorganic phosphate after administration ([2]; patient 2 (person sixteen), 6 µg/day, 8 weeks): 4.7 mg/dL
- Concentration of inorganic phosphate before administration ([2]; patient 2 (person sixteen), baseline): 6.3 mg/dL
- Concentration of inorganic phosphate after administration ([2]; patient 3 (person four), 4 µg/day, 8 weeks): 4.7 mg/dL
- Concentration of inorganic phosphate before administration ([2]; patient 3 (person four), baseline): 5.9 mg/dL
- Concentration of inorganic phosphate after administration ([2]; patient 4 (person twelve), 8 µg/day, 8 weeks): 4.9 mg/dL
- Concentration of inorganic phosphate before administration ([2]; patient 4 (person twelve), baseline): 6.5 mg/dL
- Concentration of inorganic phosphate after administration ([2]; patient 5 (person twenty), 6 µg/day, 8 weeks): 5.3 mg/dL
- Concentration of inorganic phosphate before administration ([2]; patient 5 (person twenty), baseline): 6.6 mg/dL
- Concentration of inorganic phosphate after administration ([2]; patient 6 (person three), 4 µg/day, 8 weeks): 3.8 mg/dL
- Concentration of inorganic phosphate before administration ([2]; patient 6 (person three), baseline): 5.8 mg/dL
- Concentration of inorganic phosphate after administration ([2]; patient 7 (person one), 2 µg/day, 8 weeks): 3.7 mg/dL
- Concentration of inorganic phosphate before administration ([2]; patient 7 (person one), baseline): 5.5 mg/dL
- Concentration of inorganic phosphate after administration ([2]; patient 8 (person ten), 6 µg/day, 8 weeks): 4.2 mg/dL
- Concentration of inorganic phosphate before administration ([2]; patient 8 (person ten), baseline): 6.1 mg/dL
- inorganic phosphate level in serum ([2]; patient of chronic renal failure, normal level 2.5 to 5.5 mg/dl): significantly reduced to the normal level
- metastatic calcification (roentgenographic examination) ([3]; all patients, after completion of the administration): metastatic calcification was not recognized
- Concentration of inorganic phosphorus after administration, average ([3]; average of 8 patients, 2 to 10 µg/day, 6 weeks): 4.36 ± 0.76 mg/dL
- Concentration of inorganic phosphorus before administration, average [3, 5]: 6.63 ± 0.77 mg/dL
- osteomalacia (bone biopsy) ([3]; one patient, after completion of the administration): improvement of osteomalacia was confirmed
- Concentration of inorganic phosphorus after administration ([3]; patient 1 (person fifteen), 8 µg/day, 6 weeks): 4.9 mg/dL
- Concentration of inorganic phosphorus before administration ([3]; patient 1 (person fifteen), baseline): 7.2 mg/dL
- Concentration of inorganic phosphorus after administration ([3]; patient 2 (person one), 6 µg/day, 6 weeks): 4.7 mg/dL
- Concentration of inorganic phosphorus before administration ([3]; patient 2 (person one), baseline): 6.7 mg/dL
- Concentration of inorganic phosphorus after administration ([3]; patient 3 (person five), 10 µg/day, 6 weeks): 5.2 mg/dL
- Concentration of inorganic phosphorus before administration ([3]; patient 3 (person five), baseline): 8.0 mg/dL
- Concentration of inorganic phosphorus after administration ([3]; patient 4 (person nine), 4 µg/day, 6 weeks): 4.2 mg/dL
- Concentration of inorganic phosphorus before administration ([3]; patient 4 (person nine), baseline): 5.8 mg/dL
- Concentration of inorganic phosphorus after administration ([3]; patient 5 (person eleven), 8 µg/day, 6 weeks): 5.3 mg/dL
- Concentration of inorganic phosphorus before administration ([3]; patient 5 (person eleven), baseline): 7.1 mg/dL
- Concentration of inorganic phosphorus after administration ([3]; patient 6 (person eighteen), 6 µg/day, 6 weeks): 3.5 mg/dL
- Concentration of inorganic phosphorus before administration ([3]; patient 6 (person eighteen), baseline): 6.3 mg/dL
- Concentration of inorganic phosphorus after administration ([3]; patient 7 (person eight), 2 µg/day, 6 weeks): 3.5 mg/dL
- Concentration of inorganic phosphorus before administration ([3]; patient 7 (person eight), baseline): 5.8 mg/dL
- Concentration of inorganic phosphorus after administration ([3]; patient 8 (person thirteen), 6 µg/day, 6 weeks): 3.6 mg/dL
- Concentration of inorganic phosphorus before administration ([3]; patient 8 (person thirteen), baseline): 6.1 mg/dL
- inorganic phosphate level in serum ([3]; patient of chronic renal failure given hemodialysis): significant reduction of the inorganic phosphate level in their serum to the normal level
- LD50 at 336 h [4]: > 150 mg/kg
